Data: patent US20110039763A1, “TARGETED ANTIMICROBIAL MOIETIES” (C3 JIAN, INC., priority 2009, published 2011)
“Also recorded” adds a separate entry of the source.

Columns and labels:
microorganisms [1] = experiment: Targeting peptide binding to target microorganisms (Tables 3, 10, 12); settings: microorganism(s) the targeting peptide binds; binding in aqueous buffers varied with peptide solubility, preferably 1x PBS
microorganisms [2] = experiment: Morphology, biofilm and growth disrupting peptides (Table 5); assay type: cell-based; parameters: key: A: Peptide aggregates; B: Less hyphal formation; Clumps; Diffuse clumps and small polyps; F: Diffuse growth; H: Thin; I: Growth inhibition; Microcolony formation; Rippled; Small polyps; Thick; W: Halo formation on top, microlonies on bottom
Description: In certain embodiments peptides that induce alterations in phenotype or other biological activities can also be used as antimicrobial effector moieties.

microorganisms [3] = experiment: Peptide activities: targeting/binding, antimicrobial, growth or phenotype altering (Tables 7, 8); assay type: cell-based; settings: peptides having multiple activities

Substance | Target(s) (microorganisms [1]) | Organism, effect (microorganisms [2]; E. coli) | Organism, effect (microorganisms [2]; MRSA) | Organism, effect (microorganisms [2]; S. epidermidis) | Organism, effect (microorganisms [2]; S. pneumoniae) | Activities (microorganisms [3]) | Organism, effect (microorganisms [2]; C. jeikeium) | Organism, effect (microorganisms [2]; E. faecalis) | Organism, effect (microorganisms [2]; B. subtilis) | Organism, effect (microorganisms [2]; C. jejuni) | Organism, effect (microorganisms [2]; M. luteus)
PF-540: peptide having multiple activities (KSILILIKVIFIGQTTIIL; Peptide with targeting and/or antimicrobial activity) | C. albicans | E. coli (R) | MRSA (H) | S. epidermidis (H) | S. pneumoniae (R) | G B | – | – | – | – | –
PF-542: peptide having multiple activities (KKDNPSLNDQDKNAVLNLLALAK; Peptide with targeting and/or antimicrobial activity) | C. jeikeium | – | – | – | S. pneumoniae (H) | G B | – | – | – | – | –
PF-546: peptide having multiple activities (PIIAPTIKTQIQ; Peptide with targeting and/or antimicrobial activity) | S. epidermidis; also recorded: E. coli; also recorded: C. albicans; also recorded: S. pneumoniae; also recorded: E. faecalis; also recorded: C. jeikeium | E. coli (R) | MRSA (D) | S. epidermidis (D) | S. pneumoniae (D) | G B | C. jeikeium (D) | E. faecalis (D) | – | – | –
PF-549: peptide having multiple activities (TGIGPIARPIEHGLDS; Peptide with targeting and/or antimicrobial activity) | E. coli; also recorded: C. albicans; also recorded: S. pneumoniae; also recorded: C. jeikeium | – | MRSA (C) | – | – | G B | – | – | B. subtilis (D) | – | –
PF-550: peptide having multiple activities (STENGWQEFESYADVGVDPRRYVPL; Peptide with targeting and/or antimicrobial activity) | S. pneumoniae | – | – | – | – | G B | – | – | B. subtilis (D) | – | –
PF-551: peptide having multiple activities (QVKEKRREIELQFRDAEKKLEASVQAE; Peptide with targeting and/or antimicrobial activity) | S. pneumoniae | – | MRSA (C) | – | – | G B | – | – | – | – | –
PF-552: peptide having multiple activities (ELDKADAALGPAKNLAPLDVINRS; Peptide with targeting and/or antimicrobial activity) | S. pneumoniae | – | – | – | – | G B | – | – | B. subtilis (D) | – | –
PF-553: peptide having multiple activities (LTIVGNALQQKNQKLLLNQKKITSLG; Peptide with targeting and/or antimicrobial activity) | S. epidermidis and E. coli and P. aeruginosa and C. albicans and MRSA and S. pneumoniae and C. jeikeium | – | MRSA (M) | – | S. pneumoniae (R) | G B | C. jeikeium (R) | – | B. subtilis (D) | – | –
PF-554: peptide having multiple activities (AKNFLTRTAEEIGEQAVREGNINGP; Peptide with targeting and/or antimicrobial activity) | S. pneumoniae | – | – | – | – | G B | – | – | B. subtilis (D) | – | –
PF-557: peptide having multiple activities (AANKAREQAAAEAKRKAEEQAR; Peptide with targeting and/or antimicrobial activity) | S. pneumoniae | – | – | – | – | G B | – | – | B. subtilis (D) | – | –
PF-558: peptide having multiple activities (ADAPPPLIVRYS; Peptide with targeting and/or antimicrobial activity) | S. epidermidis; also recorded: E. coli; also recorded: C. albicans; also recorded: C. jeikeium; also recorded: C. jejuni | – | MRSA (C) | S. epidermidis (M) | S. pneumoniae (R) | G B | – | – | B. subtilis (D) | C. jejuni (H) | –
PF-559: peptide having multiple activities (SRPGKPGGVSIDVSRDRQDILSNYP; Peptide with targeting and/or antimicrobial activity) | S. epidermidis; also recorded: M. luteus; also recorded: C. albicans; also recorded: C. jeikeium; also recorded: C. jejuni | – | – | – | – | G B | – | – | B. subtilis (C) | C. jejuni (A) | –
PF-560: peptide having multiple activities (FGNPFRGFTLAMEADFKKRK; Peptide with targeting and/or antimicrobial activity) | S. epidermidis; also recorded: M. luteus; also recorded: E. coli; also recorded: S. pneumoniae; also recorded: C. jeikeium; also recorded: C. jejuni | – | MRSA (C) | – | S. pneumoniae (R) | G B | – | – | B. subtilis (D) | C. jejuni (A) | –
PF-563: peptide having multiple activities (RPELDNELDVVQNSASLDKLQASYN; Peptide with targeting and/or antimicrobial activity) | S. epidermidis; also recorded: M. luteus; also recorded: C. jeikeium | – | – | – | S. pneumoniae (H) | G B | – | – | B. subtilis (D) | C. jejuni (H) | –
PF-564: peptide having multiple activities (TIILNDQINSLQERLNKLNAETDRR; Peptide with targeting and/or antimicrobial activity) | S. epidermidis; also recorded: C. albicans; also recorded: S. pneumoniae; also recorded: C. jeikeium | – | MRSA (C) | – | – | G B | C. jeikeium (R) | – | B. subtilis (D) | C. jejuni (R) | –
PF-566: peptide having multiple activities (EAQQVTQQLGADFNAITTPTATKV; Peptide with targeting and/or antimicrobial activity) | P. mirabilis; also recorded: S. pneumoniae | – | MRSA (M) | – | S. pneumoniae (D) | G B | C. jeikeium (C) | – | B. subtilis (C) | C. jejuni (D) | M. luteus (D)
PF-567: peptide having multiple activities (QQRVKAVDASLSQVSTQVSGAVASA; Peptide with targeting and/or antimicrobial activity) | S. epidermidis and P. aeruginosa and C. albicans and MRSA and S. pneumoniae and C. jeikeium | – | MRSA (D) | – | S. pneumoniae (D) | G B | C. jeikeium (C) | – | – | C. jejuni (D) | M. luteus (C)
PF-569: peptide having multiple activities (KSKISEYTEKEFLEFVEDIYTNNK; Peptide with targeting and/or antimicrobial activity) | M. luteus; also recorded: P. mirabilis; also recorded: S. pneumoniae; also recorded: E. faecalis; also recorded: C. jeikeium | – | – | – | – | G B | – | – | B. subtilis (D) | – | –
PF-572: peptide having multiple activities (WRASKGLPGFKAG; Peptide with targeting and/or antimicrobial activity) | S. epidermidis; also recorded: M. luteus; also recorded: E. coli; also recorded: S. pneumoniae; also recorded: C. jeikeium | – | – | – | S. pneumoniae (R) | G B | – | – | B. subtilis (D) | – | –
PF-573: peptide having multiple activities (EKKLIVKLIDSIGKSHEEIVGAG; Peptide with targeting and/or antimicrobial activity) | S. epidermidis; also recorded: S. pneumoniae | – | – | – | S. pneumoniae (C) | G B | – | – | – | – | –
PF-576: peptide having multiple activities (AYSGELPEPLVRKMSKEQVRSVMGK; Peptide with targeting and/or antimicrobial activity) | M. luteus; also recorded: P. mirabilis; also recorded: E. coli; also recorded: P. aeruginosa; also recorded: C. albicans; also recorded: S. pneumoniae | E. coli (A) | MRSA (R) | S. epidermidis (A) | S. pneumoniae (C) | G B | – | – | – | C. jejuni (C) | –
PF-584: peptide having multiple activities (chain 1 SYIKNLSNQKFLIAF; chain 2 SYIKNLSNQKFLIAF; Peptide with targeting and/or antimicrobial activity) | S. epidermidis and M. luteus and P. mirabilis and C. albicans and MRSA and S. pneumoniae and E. faecalis and C. jeikeium | E. coli (C) | MRSA (D) | S. epidermidis (C) | S. pneumoniae (D) | G B | – | E. faecalis (D) | – | C. jejuni (D) | –
